Source: ChEMBL document CHEMBL1157539, “Thousands of chemical starting points for antimalarial lead identification” (Nature, 2010)

Tested on: Plasmodium falciparum
Assay: GSK_TCMDC: Inhibition of Plasmodium falciparum 3D7 in whole erythrocytes, using parasite LDH activity as an index of growth.
Assay type: functional, organism-based
Conditions: Plasmodium falciparum, 3D7

| Structure (SMILES) | XC50 |
| --- | --- |
| COc1ccc2nc(C)cc(N/N=C/c3cccc([N+](=O)[O-])c3)c2c1 | 725 nM |
| CCN(CC)CCN(Cc1ccc(-c2ccc(C(F)(F)F)cc2)cc1)C(=O)Cn1c(CCc2c(F)cc(F)cc2F)nc(=O)c2ccccc21 | 1040 nM |
| O=C(/C=C/c1ccc(Cl)c(Cl)c1)NCCCCCN1CCC(C(=O)Nc2ccc(Cl)c(Cl)c2)CC1 | 637 nM |
| Cc1ccc(CC(C)NCC(O)c2cccc([N+](=O)[O-])c2)cc1 (centres undefined) | 761 nM |
| COc1ccc2nccc([C@@H](O)CN3CCC(NCCOc4cccc(C(F)(F)F)c4Cl)CC3)c2c1 | 154 nM |
| CC(O)C1CCCCN1C(=O)c1cccc(-c2cccc(-c3nc4cc(F)ccc4[nH]3)c2)c1 (centres undefined) | 536 nM |
| CC(Cc1ccc(CNC(=O)NCc2ccc(CC(C)NCCc3cccc(Cl)c3)cc2)cc1)NCCc1cccc(Cl)c1 (centres undefined) | 685 nM |
| Cc1ccc(C(=O)Nc2ccc(C)c(OC3CCN(Cc4ccco4)C3)c2)cc1 (centres undefined) | 966 nM |
| FC(F)(F)c1ccc2[nH]c(-c3ccc(-c4cccc(CNCc5ccccc5)c4)cc3)nc2c1 | 222 nM |
| CCCCCC(C)C(C)c1cc(O)c2c(c1)OC(C)(C)CC2=Cc1ccncc1 (centres undefined) | 213 nM |
| CCOC(=O)c1c(CSc2ccccc2)oc2cc(CN(C)C)c(O)c(Cl)c12 | 657 nM |
| CCOc1ccc(-c2nonc2NC(=O)c2ccc(OC)cc2)cc1OCC | 822 nM |
| Cc1ccc(C2(CN3CCC(NC(=O)c4cc[nH]n4)CC3)CCCCC2)cc1 | 225 nM |
| CCN(CC)CCNC(=O)c1ccc(Nc2ncc([N+](=O)[O-])c(Nc3ccccc3OC)n2)cc1 | 144 nM |
| NC(=O)COc1cccc2c1CCN(CCN1CCC(NC(=O)c3ccc(-c4ccc(Cl)cc4)cc3)CC1)C2 | 841 nM |
| Fc1cccc(COc2ccc(Nc3ncnc4sc(C#CCNC5CCCC5)cc34)cc2Cl)c1 | 782 nM |
| CCCCNc1nc(NCCCC)c2c(C)c(Cc3ccccc3)c(NCCCC)nc2n1 | 889 nM |
| O=C(Nc1ccc(Cl)cc1)c1cc(Cl)cc2nc(C(F)(F)F)[nH]c12 | 131 nM |
| CN1CC[C@@H](Oc2cc(NC(=O)Nc3ccccc3Br)ccc2Cl)C1 | 1100 nM |
| O=C(O)/C=C/c1cccc(F)c1F | 96.1 nM |
| CC(Sc1nnc(-c2cccs2)[nH]1)C(=O)c1c[nH]c2ccccc12 (centres undefined) | 1800 nM |
| Fc1ccc2[nH]c(-c3ccccc3)nc2c1CN1CCC(N2CCCC2)CC1 | 717 nM |
| O=C1OC2(CN1CC1CCN(Cc3ccc(-n4ccnc4)cc3)C1)c1ccccc1-c1ccccc12 (centres undefined) | 983 nM |
| COc1ccc(CNC(=O)C2Cc3ccccc3CN2Cc2ccc3ccccc3c2)cc1 (centres undefined) | 1100 nM |
| Oc1ccc(Cl)cc1CN1CCC(CCOC(c2ccccc2)c2ccccc2)CC1 | 649 nM |

| Structure (SMILES) | XC50 |
| --- | --- |
| O=C(Nc1ccc(OC(F)(F)F)cc1)Nc1ccc([N+](=O)[O-])cc1 | 878 nM |
| Cc1cccc2nc(-c3ccc(-c4ccc(NC(=O)Nc5ccc(Cl)c(Cl)c5)cc4)cc3)[nH]c12 | 826 nM |
| CC(CCON1C(N)=NC(N)=NC1(C)C)c1ccc(Cl)cc1 (centres undefined) | 3.2 nM |
| O=C(c1cccc(-c2noc(C(F)(F)F)n2)c1)N1CCN(C(=O)c2ccc3cc[nH]c3c2)CC1 | 107 nM |
| CN(C)CCCOc1cccc(NC(=O)Nc2ccc(-c3ccccc3)cc2)c1 | 868 nM |
| CC(Cc1ccc(NC(=O)c2ccc(CC(C)NCc3ccc(Cl)cc3)cc2)cc1)NCCc1cccc(Cl)c1 (centres undefined) | 450 nM |
| CC1(C)NC(N)=NC(=N)N1OCCNCc1ccc(Cl)cc1 | 160 nM |
| CCCc1cc(Cc2cnc(N)nc2N)cc(CCC)c1OCCCCC(=O)OC | 41.9 nM |
| CCCCCN1CCCC1CNS(=O)(=O)c1ccc(C(=O)Nc2ccc(C(F)(F)F)cc2)cc1 (centres undefined) | 838 nM |
| CN1CCN(CCNc2c3ccccc3nc3ccc4ccccc4c23)CC1 | 534 nM |
| COc1ccc2nccc(NC(=O)C3CCC(NCc4cnc(SC)c([N+](=O)[O-])c4)CC3)c2n1 (centres undefined) | 927 nM |
| Oc1ccc(Cl)cc1Nc1nc(C(F)(F)F)nc2ccccc12 | 938 nM |
| CCOc1cc(C(=O)NCCCN2CCN(c3cccc(Cl)c3)CC2)ccc1-c1nc2cc(Cl)c(F)cc2[nH]1 | 866 nM |
| N=C(NC1CC1)c1ccc2[nH]c(CCCCCc3nc4cc(C(=N)NC5CC5)ccc4[nH]3)nc2c1 | 934 nM |
| COc1ccc(CN2CCCN(Cc3cccc(NC(=O)c4ccc(-c5ccccc5)cc4)c3)CC2)cc1 | 943 nM |
| CN(CCCCNC(=O)/C=C/c1ccccc1)C1CC2(CCN(C(=O)OC(C)(C)C)CC2)c2ccccc21 (centres undefined) | 1140 nM |
| CON=Cc1sc(CNCCCN=c2cc(O)c3ccccc3[nH]2)c(C)c1Br | 962 nM |
| Cc1c(-c2ccc3c(c2)C(NCCCN2CCCCC2)CC3)cnc(N)c1C (centres undefined) | 1110 nM |
| O=C(N[C@@H](CC1CCCCC1)C(=O)NCc1cccc(C(F)(F)F)c1)c1ccc(O)c(-c2ccc(Cl)c(Cl)c2)c1 | 224 nM |
| N#Cc1ccc(CNCCCCCCNCc2ccc(C#N)c3ccccc23)c2ccccc12 | 610 nM |
| COc1cc2ncnc(Nc3ccc4nc(-c5ccccc5)[nH]c4c3)c2cc1OC | 443 nM |
| COc1cccc(CC(C)NCC(O)c2cccc(Cl)c2)c1 (centres undefined) | 1270 nM |
| CN1CCC(NC(=O)c2cc(Oc3ccc4c(c3)CCN4C(=O)Nc3cccc(C(F)(F)F)c3)ccn2)CC1 | 930 nM |
| COc1ccccc1CCNc1nc(C)cc(N[C@@H](Cc2ccccc2)C(=O)NCCCOC(C)C)n1 | 865 nM |
| N=C(N)NN=CC(=O)Nc1cc([N+](=O)[O-])cc([N+](=O)[O-])c1 | 628 nM |

| Structure (SMILES) | XC50 |
| --- | --- |
| COc1ccc(C2C(C(=O)Nc3cc(Cl)c(OC)cc3OC)c3ccccc3C(=O)N2C)cc1 (centres undefined) | 820 nM |
| Cc1ccccc1Cn1ccc2c3c(N)nc(N)nc3ccc21 | 3.2 nM |
| CC(C)=CCN1CCC(C(=O)Nc2ccc(-c3nc4ccccc4[nH]3)cc2)CC1 | 908 nM |
| c1ccc(Oc2ccc(Nc3ccnc4cc(-c5ccc(CN6CCOCC6)o5)ccc34)cc2)nc1 | 906 nM |
| COc1ccc(Cn2c(=O)[nH]c3cc(C(=O)NC4CCN(Cc5ccccc5)CC4)ccc3c2=O)cc1 | 751 nM |
| O=C(Nc1cccc(CN2CCN(C(=O)c3ccccc3)CC2)c1)c1cccs1 | 308 nM |
| Cc1sc(CNCCCNc2cc(=O)c3ccccc3[nH]2)c(C(F)(F)F)c1C | 734 nM |
| Cc1cccc(Cn2c(Cc3ccccc3)nnc2Sc2ccc([N+](=O)[O-])c(C#N)c2)c1 | 1140 nM |
| N=C(N)Nc1nc(-c2cccc(NC(=O)Cc3ccccc3)c2)cs1 | 1000 nM |
| CC(C)C[C@@H](/C=N/N1CC(=O)NC1=O)NC(=O)[C@H](CC(C)C)NC(=O)c1ccc(OCCN2CCOCC2)cc1 | 270 nM |
| Cc1cc(NC(=O)NCCN2CCC(NC(=O)c3cccc(Br)c3)C2)c2ccccc2n1 (centres undefined) | 553 nM |
| CC1(C)NC(=N)N=C(NOCC=Cc2ccccc2)N1 | 227 nM |
| Cc1nc(C)c(-c2ccc(Oc3cc(Cl)cc(Cl)c3)cc2)c(O)c1Br | 242 nM |
| COc1ccc2nccc([C@@H](O)CN3CCC(NC(=O)c4[nH]c5ccccc5c4-c4ccccc4)CC3)c2c1 | 904 nM |
| CN1CCN(CCCN(Cc2cccc(-c3cccc(CNCCc4ccccc4)c3)c2)C(=O)Nc2ccccc2)CC1 | 579 nM |
| CC(=O)c1cccc2[nH]c(C(=O)NC3CCC(CCN4CCc5ccc(C#N)cc5C4)CC3)cc12 (centres undefined) | 842 nM |
| O=C(/C=C/c1ccc(C(F)(F)F)cc1)NCCCCCN1CCCN(C(=O)Nc2ccc(Cl)cc2)CC1 | 869 nM |
| CCN(CC)c1ccc(C(c2ccc(N(CC)CC)cc2)c2ccc([N+](=O)[O-])cc2)cc1 | 946 nM |
| CC1CCc2c(C(=O)N3CCc4ccccc4C3)csc2C1 (centres undefined) | 782 nM |
| Cc1ccc(NC(=O)c2ccc(N3CCC(c4ccccc4C)CC3)nc2)cc1 | 1400 nM |
| CC1CC(NCCCNc2cc(=O)c3ccccc3[nH]2)c2c1cc(Cl)c(Cl)c2Cl (centres undefined) | 837 nM |
| Cc1cnc2ccc(NS(=O)(=O)c3sc4ccc(Cl)cc4c3C)cc2c1N1CCNCC1 | 807 nM |
| Cc1oc(-c2ccccc2)nc1CCOc1ccc(C[C@H](Nc2ccccc2C(=O)c2ccccc2)C(=O)NCc2ccccn2)cc1 | 884 nM |
| O=[N+]([O-])c1cccc(C(Nc2ccccn2)c2ccc3cccnc3c2O)c1 (centres undefined) | 1330 nM |
| CC1(C)N=C(N)N=C(N)N1OCc1ccc2ccccc2c1 | 3.2 nM |

| Structure (SMILES) | XC50 |
| --- | --- |
| Nc1nc(Nc2cccc(Cl)c2)ncc1C(=O)NCc1ccncc1 | 832 nM |
| CC1(C)NC(N)=NC(=N)N1OCc1cc(Cl)cc2c1OCOC2 | 3.2 nM |
| Cc1ccc(C(C)C)c(Oc2ccc3nc(N)nc(N)c3c2)c1 | 10.2 nM |
| COc1ccc(C=NNc2nc3ccccc3[nH]2)cc1O | 915 nM |
| CN1CCC(C(=O)Nc2ccc(-c3ccc(-c4nc5ccccc5[nH]4)s3)cc2)CC1 | 816 nM |
| CCC(C)NCCC(c1ccccc1)c1ccccc1O (centres undefined) | 788 nM |
| C=CCOc1cccc2c1CCN(CCN1CCC(NC(=O)c3ccc(-c4ccc(Cl)cc4)cc3)CC1)C2 | 673 nM |
| Cc1nccc2c(NC(=O)N[C@@H]3CCN(c4ncc(C(F)(F)F)cc4Br)C3)cccc12 | 364 nM |
| Cc1cc(NC2CCCC2)nc(Nc2ccccc2)n1 | 985 nM |
| Cc1cccc2nc(-c3ccc(-c4cccc(CN5CC(C)OC(C)C5)c4)s3)[nH]c12 (centres undefined) | 757 nM |
| COc1ccc2nccc(N3CCC(NCCNCc4ccc5c(n4)NC(=O)CS5)C3)c2n1 (centres undefined) | 694 nM |
| Clc1ccc(Nc2nc(NCc3ccccc3)nc(N/N=C/c3ccccn3)n2)cc1 | 776 nM |
| CC(C)CNCc1cccc(-c2ccc(CN(C(=O)NCCc3ccccc3)C3CCN(Cc4ccccc4)CC3)cc2)c1 | 764 nM |
| CCN(CCCN1CCCCC1)c1cc(C)nc(Nc2ccc(C)cc2C(F)(F)F)n1 | 544 nM |
| N#Cc1cccc(NC(=O)Nc2ccc(-c3cccc(-c4nc5cc(F)ccc5[nH]4)c3)cc2)c1 | 275 nM |
| O=C(NCc1cccnc1)C(c1cc2ccccc2o1)N1CCN(C(c2ccccc2)c2ccccc2)CC1 (centres undefined) | 713 nM |
| CC[C@H]1CN(C/C=C/c2ccc(OC)cc2)CC[C@H]1CCCc1ccnc2ccc(O)cc12 | 657 nM |
| c1ccc2[nH]c(-c3ccc(-c4ccc(CN5CCCCC5)cc4)cc3)nc2c1 | 750 nM |
| COc1cc(NC(=O)c2ccc3c(=O)n(Cc4ccccc4)c(=S)[nH]c3c2)cc(OC)c1OC | 743 nM |
| Cc1ccc(F)cc1S(=O)(=O)N1CCCCC(c2ccc(C(F)(F)F)cc2)=N1 | 937 nM |
| Cc1cc(C)c2oc(-c3cccc(NC(=O)c4ccc([N+](=O)[O-])o4)c3C)nc2c1 | 1150 nM |
| Cc1cc(NC(=O)Nc2ccc3nccc(N4CCN(C)CC4)c3c2)ccc1Br | 92.7 nM |
| Cc1cc(O)cc2c(C3CCN(CC4CCC(NC(=O)/C=C/c5ccccc5Cl)CC4)CC3)c[nH]c12 (centres undefined) | 900 nM |
| C=CCc1cccc(OC)c1OCCCON1C(=N)N=C(N)NC1(C)C | 3.2 nM |
